Test results taken from PubChem BioAssay (NCI).
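In this assay, cells in 96-well plates receive the compound at five concentrations for 48 hours. Endpoints are linearly interpolated between the surrounding concentrations. GI50 = concentration required for 50% inhibition of growth. At the TGI there is no net growth.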

Tests used:
Experiment in all cases: NCI anticancer screen, dose series, 48 h
786-0 renal = tested on: 786-0 renal
A498 renal = tested on: A498 renal
A549 NSCLC = tested on: A549 NSCLC
ACHN renal = tested on: ACHN renal
CAKI-1 renal = tested on: CAKI-1 renal
CCRF-CEM leukemia = tested on: CCRF-CEM leukemia
COLO 205 colon = tested on: COLO 205 colon
DLD-1 colon = tested on: DLD-1 colon
DMS 114 small cell lung = tested on: DMS 114 small cell lung
EKVX NSCLC = tested on: EKVX NSCLC
HCC-2998 colon = tested on: HCC-2998 colon
HCT-116 colon = tested on: HCT-116 colon
HCT-15 colon = tested on: HCT-15 colon
HL-60(TB) leukemia = tested on: HL-60(TB) leukemia
HOP-18 NSCLC = tested on: HOP-18 NSCLC
HOP-62 NSCLC = tested on: HOP-62 NSCLC
HOP-92 NSCLC = tested on: HOP-92 NSCLC
HT29 colon = tested on: HT29 colon
IGROV1 ovarian = tested on: IGROV1 ovarian
K-562 leukemia = tested on: K-562 leukemia
KM12 colon = tested on: KM12 colon
KM20L2 colon = tested on: KM20L2 colon
LOX IMVI melanoma = tested on: LOX IMVI melanoma
LXFL 529 NSCLC = tested on: LXFL 529 NSCLC
M14 melanoma = tested on: M14 melanoma
MALME-3M melanoma = tested on: MALME-3M melanoma
MOLT-4 leukemia = tested on: MOLT-4 leukemia
NCI-H226 lung = tested on: NCI-H226 lung
NCI-H23 lung = tested on: NCI-H23 lung
NCI-H460 lung = tested on: NCI-H460 lung
NCI-H522 lung = tested on: NCI-H522 lung
OVCAR-3 ovarian = tested on: OVCAR-3 ovarian
OVCAR-4 ovarian = tested on: OVCAR-4 ovarian
OVCAR-5 ovarian = tested on: OVCAR-5 ovarian
OVCAR-8 ovarian = tested on: OVCAR-8 ovarian
RPMI-8226 leukemia = tested on: RPMI-8226 leukemia
RXF 393 renal = tested on: RXF 393 renal
SF-268 CNS = tested on: SF-268 CNS
SF-295 CNS = tested on: SF-295 CNS
SF-539 CNS = tested on: SF-539 CNS
SK-MEL-2 melanoma = tested on: SK-MEL-2 melanoma
SK-MEL-28 melanoma = tested on: SK-MEL-28 melanoma
SK-MEL-5 melanoma = tested on: SK-MEL-5 melanoma
SK-OV-3 ovarian = tested on: SK-OV-3 ovarian
SN12C renal = tested on: SN12C renal
SNB-19 CNS = tested on: SNB-19 CNS
SNB-75 CNS = tested on: SNB-75 CNS
SR leukemia = tested on: SR leukemia
SW-620 colon = tested on: SW-620 colon
TK-10 renal = tested on: TK-10 renal
U251 CNS = tested on: U251 CNS
UACC-257 melanoma = tested on: UACC-257 melanoma
UACC-62 melanoma = tested on: UACC-62 melanoma
UO-31 renal = tested on: UO-31 renal
XF 498 CNS = tested on: XF 498 CNS

CC(=O)[CH-]C(C)=O.CC(=O)[CH-]C(C)=O.[CH2-]CCCCCCC.[CH2-]CCCCCCC.[Sn+4]
GI50 (786-0 renal): 15.8 µM | TGI (786-0 renal): 30.1 µM | GI50 (A498 renal): 23 µM | TGI (A498 renal): 46.7 µM | GI50 (A549 NSCLC): 45.6 µM | TGI (A549 NSCLC): > 100 µM | GI50 (ACHN renal): 28.3 µM | TGI (ACHN renal): 70.4 µM | GI50 (CAKI-1 renal): 36.7 µM | TGI (CAKI-1 renal): > 100 µM | GI50 (CCRF-CEM leukemia): 27 µM | TGI (CCRF-CEM leukemia): 69 µM | GI50 (COLO 205 colon): 14.7 µM | TGI (COLO 205 colon): 28.8 µM | GI50 (DLD-1 colon): 18.8 µM | TGI (DLD-1 colon): 45.2 µM | GI50 (DMS 114 small cell lung): 16.7 µM | TGI (DMS 114 small cell lung): 31.2 µM | GI50 (EKVX NSCLC): 14.7 µM | TGI (EKVX NSCLC): 35.4 µM | GI50 (HCC-2998 colon): 17 µM | TGI (HCC-2998 colon): 31.5 µM | GI50 (HCT-116 colon): 14.8 µM | TGI (HCT-116 colon): 29.1 µM | GI50 (HCT-15 colon): 23.2 µM | TGI (HCT-15 colon): 56.2 µM | GI50 (HL-60(TB) leukemia): 21.1 µM | TGI (HL-60(TB) leukemia): 81.6 µM | GI50 (HOP-18 NSCLC): > 100 µM | TGI (HOP-18 NSCLC): > 100 µM | GI50 (HOP-62 NSCLC): 22.4 µM | TGI (HOP-62 NSCLC): 40.9 µM | GI50 (HOP-92 NSCLC): 18.1 µM | TGI (HOP-92 NSCLC): 40.7 µM | GI50 (HT29 colon): 23.5 µM | TGI (HT29 colon): 59.6 µM | GI50 (IGROV1 ovarian): 20.3 µM | TGI (IGROV1 ovarian): 49.2 µM | GI50 (K-562 leukemia): 20.5 µM | TGI (K-562 leukemia): 93.5 µM | GI50 (KM12 colon): 16.7 µM | TGI (KM12 colon): 34.4 µM | GI50 (KM20L2 colon): 25 µM | TGI (KM20L2 colon): 57.6 µM | GI50 (LOX IMVI melanoma): 13.8 µM | TGI (LOX IMVI melanoma): 27 µM | GI50 (LXFL 529 NSCLC): 16.2 µM | TGI (LXFL 529 NSCLC): 30.1 µM | GI50 (M14 melanoma): 18.5 µM | TGI (M14 melanoma): 35.5 µM | GI50 (MALME-3M melanoma): 17.6 µM | TGI (MALME-3M melanoma): 39.5 µM | GI50 (MOLT-4 leukemia): 37.2 µM | TGI (MOLT-4 leukemia): 73 µM | GI50 (NCI-H226 lung): 26.2 µM | TGI (NCI-H226 lung): 52.3 µM | GI50 (NCI-H23 lung): 18.7 µM | TGI (NCI-H23 lung): 33.6 µM | GI50 (NCI-H460 lung): 17.3 µM | TGI (NCI-H460 lung): 37.8 µM | GI50 (NCI-H522 lung): 20.3 µM | TGI (NCI-H522 lung): 46.2 µM | GI50 (OVCAR-3 ovarian): 15.9 µM | TGI (OVCAR-3 ovarian): 33.8 µM | GI50 (OVCAR-4 ovarian): 22.3 µM | TGI (OVCAR-4 ovarian): 78.6 µM | GI50 (OVCAR-5 ovarian): 15.5 µM | TGI (OVCAR-5 ovarian): 37.7 µM | GI50 (OVCAR-8 ovarian): 16.8 µM | TGI (OVCAR-8 ovarian): 32.1 µM | GI50 (RPMI-8226 leukemia): 18.5 µM | TGI (RPMI-8226 leukemia): 40.4 µM | GI50 (RXF 393 renal): 14.6 µM | TGI (RXF 393 renal): 32.9 µM | GI50 (SF-268 CNS): 18.9 µM | TGI (SF-268 CNS): 57.9 µM | GI50 (SF-295 CNS): 15.4 µM | TGI (SF-295 CNS): 30.6 µM | GI50 (SF-539 CNS): 22.2 µM | TGI (SF-539 CNS): 58.6 µM | GI50 (SK-MEL-2 melanoma): 14.8 µM | TGI (SK-MEL-2 melanoma): 32 µM | GI50 (SK-MEL-28 melanoma): 14.7 µM | TGI (SK-MEL-28 melanoma): 28.4 µM | GI50 (SK-MEL-5 melanoma): 17.7 µM | TGI (SK-MEL-5 melanoma): 32 µM | GI50 (SK-OV-3 ovarian): 25.5 µM | TGI (SK-OV-3 ovarian): 67.1 µM | GI50 (SN12C renal): 22.7 µM | TGI (SN12C renal): 59.1 µM | GI50 (SNB-19 CNS): 17.5 µM | TGI (SNB-19 CNS): 35.8 µM | GI50 (SNB-75 CNS): 14.7 µM | TGI (SNB-75 CNS): 78.6 µM | GI50 (SR leukemia): 39.9 µM | TGI (SR leukemia): 62.4 µM | GI50 (SW-620 colon): 16.4 µM | TGI (SW-620 colon): 31.7 µM | GI50 (TK-10 renal): 23.7 µM | TGI (TK-10 renal): 45.2 µM | GI50 (U251 CNS): 15 µM | TGI (U251 CNS): 28.3 µM | GI50 (UACC-257 melanoma): 17.8 µM | TGI (UACC-257 melanoma): 34.9 µM | GI50 (UACC-62 melanoma): 15.6 µM | TGI (UACC-62 melanoma): 29.4 µM | GI50 (UO-31 renal): 17.2 µM | TGI (UO-31 renal): 34.8 µM | GI50 (XF 498 CNS): 11.8 µM | TGI (XF 498 CNS): 24.1 µM
